Data as given in patent US6716837B1, “Heterocyclic compounds for the treatment of migraine” (NPS Allelix Biopharmaceuticals, Inc., priority 1999, dated 2004).

Each compound was assayed against T1, 5-HT1D receptor (Homo sapiens, UniProt P28221) (assay: 5-HT1D receptor binding, inhibition of 3H-serotonin binding). Details: 100 nM test compound; 3H-serotonin 1 nM; membranes from recombinant cells; 60 minute incubation at 22° C.; read-out: percent inhibition of binding of the radio ligand at the 5-HT1D receptor.
T1 construct: expressed in transfected cells
Method: Selected compounds of the previous examples, as well as reference compounds, were evaluated for binding affinity using cell types receptive specifically to 5-HT1D and 5-HT1B ligands. The assay protocol generally entailed the incubation of membranes prepared from cells expressing the 5-HT1D or 5-HT1B subtype of 5-HT receptors with ^3H-serotonin (1 nM for 5-HT1D and 2.5 nM for 5-HT1B). Specific concentrations of the test compound were incubated with the radio ligand and the membrane homogenates prepared from the recombinant cells. After a 60 minute incubation at 22° C., the incubation was terminated by vacuum filtration. The filters were washed with buffer and counted for radioactivity using liquid scintillation spectroscopy. The affinity of the test compound for the 5-HT1D receptor is expressed as the amount (in percent) of binding of the radio ligand that is inhibited in the presence of 100 nM of test compound. A greater percent inhibition indicates greater affinity for the 5-HT1D receptor.

T1 sequence (P28221 whole entry): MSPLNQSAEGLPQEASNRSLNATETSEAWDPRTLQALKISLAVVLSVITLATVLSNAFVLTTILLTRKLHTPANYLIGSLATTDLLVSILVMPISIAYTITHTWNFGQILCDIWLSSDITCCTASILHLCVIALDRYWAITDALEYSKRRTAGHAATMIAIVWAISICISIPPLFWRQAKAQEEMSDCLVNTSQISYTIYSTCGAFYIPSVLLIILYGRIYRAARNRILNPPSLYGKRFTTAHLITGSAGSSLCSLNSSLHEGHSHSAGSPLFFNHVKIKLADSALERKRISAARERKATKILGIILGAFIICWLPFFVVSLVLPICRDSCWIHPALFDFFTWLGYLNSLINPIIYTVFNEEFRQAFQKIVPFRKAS

SMILES | inhibition at 0.1 µM [%]
CN1CC=C(c2ccc3ccn(-c4cccnc4)c3c2)CC1 [Example 19d, 6-(N-Methyl-1,2,5,6-tetrahydropyridin-4-yl)-1-(3-pyridyl)-indole] | > 75
CN1CC=C(c2ccc3ccn(-c4nccs4)c3c2)CC1 [Example 19i, 6-(N-Methyl-1,2,5,6-tetrahydropyridin-4-yl)-1-(2-thiazolyl)-indole] | > 50
CN(C)CCc1ccc2ccn(C3CCOCC3)c2c1 [Example 11b, 6-(2-Dimethylaminoethyl)-1-(tetrahydropyran4-yl)-indole] | > 90
CC(C)n1ccc2ccc(C3=CCN(C)CC3)cc21 [Example 16c, 6-[N-Methyl-1,2,5,6-tetrahydropyridin-4-yl]-1-isopropyl-indole] | > 50
Brc1ccc2ccn(C3CCNCC3)c2c1 [Example 10c, 6-Bromo-1-(4-piperidinyl)-indole] | > 50
CN1CC=C(c2ccc3ccn(-c4ccsc4)c3c2)CC1 [Example 19c, 6-(N-Methyl-1,2,5,6-tetrahydropyridin-4-yl)-1-(3-thienyl)-indole] | > 75
CC(C)n1ncc2ccc(CCN(C)C)cc21 [Example 14, 6-(2-(N,N-Dimethylamino)ethyl)-1-isopropyl-1H-indazole] | > 90
CN(C)CCc1ccc2ccn(-c3cccnc3)c2c1 [Example 19f, 6-(2-Dimethylaminoethyl)-1-(3-pyridinyl)-indole] | > 90
CN1CC=C(c2ccc3ccn(-c4ccc(F)cc4)c3c2)CC1 [Example 19, 1-(4-Fluorophenyl)-6-(N-methyl-1,2,5,6-tetrahydropyridin-4-yl)-indole] | > 75
CC(C)n1ccc2ccc(CCN(C)C)cc21 [Example 2, 6-(2-(N,N-Dimethylamino)ethyl)-1-isopropyl-indole] | > 90

These compounds were tested against T1, 5-HT1D receptor (assay: Functional assay: inhibition of forskolin-stimulated adenyl cyclase (cAMP) in CHO cells). Details: CHO cells stably expressing the 5-HT1D receptor; test compound at 100 nM and 10 μM.
Type: cell-based
Method: The 5HT1D and 5HT1B receptor subtypes respond to serotonin and other agonists by reducing adenyl cyclase mediated production of cyclic AMP. Particular test compounds were assayed for their ability to inhibit adenyl cyclase activity using the procedure described below. Forskolin was used to elevate the basal adenyl cyclase activity.
Compounds acting as antagonists at the 5HT1D and 5HT1B receptor subtypes will antagonize the agonist effect of serotonin and thus, will block the serotonin-induced inhibition of forskolin-stimulated adenyl cyclase activity. […]
The culture media of each well was removed, and the wells were washed once with serum free media. […] Basal adenyl cyclase activity was determined from wells with only SFM+IBMX media added.
The cells were then incubated at 37° C. for 30 minutes in a CO2 incubator. […] The pellets were discarded and the supernatants were stored at 4° C. until assayed for cAMP concentration. cAMP content for each extract was determined in duplicate by EIA (enzyme-immunoassay) using the Amersham Biotrak cAMP EIA kit (Amersham RPN 225).
Total inhibition (Io) of forskolin-stimulated adenyl cyclase activity by serotonin was determined as the difference in concentration of cAMP in the forskolin-treated cells (Cf) and serotonin-forskolin treated cells (Cd). […]

SMILES | effect on forskolin stimulated production of cAMP (agonist activity)
CC(C)n1ccc2ccc(CCN(C)C)cc21 [Example 2, 6-(2-(N,N-Dimethylamino)ethyl)-1-isopropyl-indole] | caused a decrease in the forskolin stimulated production of cAMP
